Results on six molecules are retold here after patent US20020165270A1, “Use of a pharmaceutical composition for treating and/or preventing ischemia” (priority 1997, published 2002).

For assay [1], the system named is complex I of the mitochondria. The assay is described as follows: Protection of complex I inhibited by Amytal, measured via the RCR. The format is biochemical. Particulars: for Protection of complex I (%): complex I 58% inhibited by 0.5 mM Amytal, 60 minute incubation, Ginkor Fort 0.3 mg/ml, Bilobalide 0.8 μg/ml, Reparil 75 ng/ml, Nafthoquinone 10^−7 M, Praxilene 10^−7 M, no medicament = 0%. The procedure:
(§1) The process of the oxidative phosphorylation of ATP is a complex process which involves different enzyme complexes or electron transporters, which generate a proton gradient (complexes I, III and IV), ATP synthases (complex V), which is directly responsible for synthesizing ATP, and adenine translocase, which is the transporter which is required for importing ADP and exporting ATP (FIG. 4).
Complex I of the mitochondria was 58% inhibited by the presence of 0.5 mM Amytal. Under these conditions, the presence of the molecules at the indicated concentrations (60 minute incubation) results in an inhibition which is markedly less pronounced, with this having been expressed in percentage protection as compared with the mitochondria without medicament, which are regarded as having 0% protection.

Assay [2] deals with liver mitochondria. The assay is described as follows: RCR of liver mitochondria after 10 minute ischemia of the perfused liver. The assay is classed as in vivo, rat. As to conditions: 8 mg/kg per os for 14 days; 10 minute liver ischemia, perfusion medium with 8 mg of bilobalide/l; controls 3.73. The method, then:
(§2) The active compound of the invention (bilobalide) was administered per os to rats for 14 days at concentrations of 8 mg/kg of patient (rat). The liver mitochondria of these rats were isolated using the method described by Remacle (J. Cell. Biol. 79, 291, 1978). […] A 10 minute ischemia was performed on the livers by perfusion in a medium consisting of 0.137 M NaCl, 5.4 mM KCl, 0.8 mM MgSO4, 11 mM glucose, 0.34 mM Na2HP03, 24.4 mM NaHCO3, 6.35 mM KH2PO4 and 8 mg of bilobalide/l. The medium is first of all degassed under an atmosphere containing 95% N2 and 5% CO2. The mitochondria are isolated and their respiratory activity is determined.
For the controls, the rats were given water for 14 days and the livers were perfused with the same solution as for the tests.

The next assay concerns mitochondrial complex I. The assay is described as follows: Activity of mitochondrial complex I (ferricytochrome C reduction) in brain mitochondria of treated rats. The format is in vivo, rat. As to conditions: 10 mg/kg per os for 14 days; after 15 minute ischemia of the brain; controls 36. The procedure: The measurement carried out on the mitochondrial complex I was performed by first of all sonicating the mitochondria in order to enable the assay substrates to gain access to the complex I. The latter is assayed by following the reduction of ferricytochrome C at 550 nm. The mitochondrial suspension, which is present in a […] K phosphate buffer, pH 7.4, containing MgCl2, 10 μm of cytochrome C and 2.5 mg of bovine albumin/ml, is sonicated for 30 seconds at 0° C. 2 mM of KCW [sic] is added and the reaction is started by adding 7.5 mM NADH. The mitochondria are incubated at 37° C. and the reduction of the ferricyanide [sic] is followed at 550 nm. A correction is made for the reduction of the cytochrome C in the presence of rotenone, which inhibits complex I. The results are expressed in μmol of ferricytochrome C reduced per minute.
The activity of complex I was measured on the mitochondria of rats which had been treated per os for 14 days with 10 mg of bilobalide/kg, and after a 15minute ischemia of the brain. An activity of 36 mU/mg of protein is obtained in the case of the control rats, whereas the mitochondria from treated rats have an activity of 44 mU/mg of protein.

Assay [3] relates to complex III of the mitochondria. The assay is described as follows: Protection of complex III inhibited by a specific inhibitor, measured via the RCR. The assay is classed as biochemical. Particulars: Ginkor Fort 0.3 mg/ml, Bilobalide 0.8 μg/ml, Reparil 75 ng/ml, Nafthoquinone 10^−7 M, Praxilene 10^−7 M.
Source text: as §1

For assay [4], the system named is liver mitochondria. The assay is described as follows: RCR of liver mitochondria of rats treated per os. The assay is classed as in vivo. Particulars: rat liver mitochondria; 8 mg/kg per os for 14 days; controls 7.6. The procedure: as §2
In assay [5] the test system is mitochondria isolated from the livers of untreated rats. The assay is described as follows: RCR of mitochondria isolated from livers of untreated rats, preincubated one hour with the medicaments. The assay is classed as biochemical, rat. As to conditions: for Protective effect on the RCR (%): class I molecules, final concentrations: Ginkor Fort 0.3 mg/ml, Bilobalide 0.8 μg/ml, Reparil 75 ng/ml, Naphthoquinone 10^−7 M, Praxilene 10^−7 M, one hour preincubation; for way in which the RCR is increased (class I / class II): liver mitochondria of untreated rats preincubated for one hour. The procedure:
(§3) Different concentrations of active compounds of the invention (bilobalide) were tested on the RCR of the mitochondria which were isolated from rat brains. Five concentrations were employed: 4, 6, 8, 10 and 12 mg/kg of treated patient (rat). The rats were given these doses of bilobalide orally for 14 days. The mitochondria were isolated using the method described by Nowicki et al. (J. Cerebral Blood Flow and Metabolism, 2, pp. 33-40 (1982)). The respiration of the mitochondria is measured in a Clark oxygen electrode which is connected to a recording device. The RCR represents the respiratory control. It denotes the ratio between the consumption of oxygen in the presence of endogenous substrates (glutamate/malate) and the consumption after the ADP has been phosphorylated to ATP. This technique was developed by Chance and Williams (Nature, 175, pp. 1120-1121 (1955)). A dosedependent effect is obtained, with an increase of the RCR, of 3.7 in the case of the controls, to an RCR of 4.6 in the case of the 8 and 10 mg/kg concentrations. A maximum increase of 24% is obtained at 10 mg/kg.
Each of the active compounds of the invention can, like bilobalide, increase the RCR of mitochondria which have been isolated from the livers of untreated rats when the mitochondria are preincubated for one hour in the presence of these medicaments. The active compounds can therefore act directly on the mitochondria.

Assay [6] has as its system brain mitochondria. The assay is described as follows: RCR of brain mitochondria of orally treated rats, normal conditions. The format is in vivo, rat. The method, then: as §3
The subject of assay [7] is brain mitochondria. The experiment in a line: RCR of brain mitochondria of treated rats after 15 minute ischemia. The format is in vivo, rat. Particulars: 10 mg/kg per os for 14 days; 15 minute ischemia by decapitation; glutamate/malate; controls 3. The procedure:
A 15 minute ischemia was performed on control rats and rats which have been treated with active compounds of the invention (bilobalides) for 14 days. The ischemia is performed by decapitation. The rats were treated per os with bilobalide doses of 10 mg/kg for 14 days. When the RCR is measured in the presence of glutamate/malate in the case of a 15 minute ischemia, an RCR of 3 is observed in the case of the controls, with an RCR of 3.9 being observed in the case of the treated rats. The active compound therefore has a protective action on the decrease in respiratory activity which is induced by the ischemia. This protection is manifested through the activity of complex I and of the mitochondrial transport chain. The level of respiratory control which is measured in the presence of glutamate/malate indirectly mirrors the activity of complex I of the electron transfer chain.

For `CCC1(CCC(C)C)C(=O)NC(=O)NC1=O` [Amytal], the “inhibition of complex I of the mitochondria” value in assay [1] (0.5 mM Amytal) is 58%.
As to `CC(C)(C)[C@]1(O)CC2OC(=O)CC23C(=O)OC2OC(=O)[C@H](O)C231` (stereo partly drawn) [Bilobalide, bilobalide], the “Protection of complex I (%)” value in assay [1] is on record as 27.5%. Moreover, the RCR is reported as 5.24 in the assay on liver mitochondria [2]; 13.25 with liver mitochondria [4]; 4.6 in the assay on brain mitochondria [6] (rat brain mitochondria, 8 and 10 mg/kg orally for 14 days, glutamate/malate, controls 3.7); 3.9 in the assay with brain mitochondria [7]. The “activity of complex I” value in the assay on mitochondrial complex I was 44 mU/mg of protein. Further, the “Protection of complex III (%)” value in assay [3] came out at 47.9%. For the same molecule, the “Protective effect on the RCR (%)” value in assay [5] is recorded as “+22.7%”. Further, the “way in which the RCR is increased (class I / class II)” value in assay [5] is “increase the RCR by decreasing stage 4 of respiration”. Further, the “maximum increase of the RCR” value with brain mitochondria [6] (10 mg/kg orally for 14 days, versus controls) is on record as 24%.
Regarding `O=C1C=CC(=O)c2ccccc21` [Naphthoquinone, Nafthoquinone], in assay [1], the “Protection of complex I (%)” value came out at 14.1%. The “Protection of complex III (%)” value in assay [3] worked out at 46.6%. Besides, in assay [5], the “Protective effect on the RCR (%)” value was “+19.7%” and the “way in which the RCR is increased (class I / class II)” value is recorded as “increase the RCR by decreasing stage 4 of respiration”.
Consider `COc1ccc(-c2cc(=O)c3c(O)cc(O[C@@H]4O[C@H](CO[C@@H]5O[C@@H](C)[C@H](O)[C@@H](O)[C@H]5O)[C@@H](O)[C@H](O)[C@H]4O)cc3o2)cc1O` [diosmin], for which the “way in which the RCR is increased (class I / class II)” value in assay [5] is “increase the RCR by decreasing stage 4 of respiration”.
Same read-out and setting: the same measure for aescin: “increase the RCR by decreasing stage 4 of respiration”.
On the same count and under the same terms, in the case of “o-(hydroxyethyl) rutosides [hydroxyethylrutosides]” it was “increase the RCR by increasing stage 3 of respiration”.
